From patent US20220313733A1, “METHOD FOR PRODUCING RENAL INTERSTITIAL CELL” (Kyoto University, priority 2019, published 2022) come the findings set out here.

Common to all, as to format: cell-based, human
In one experiment the test system is hNCCs. Kind of experiment: Hypoxic response of posteriorly shifted NCCs (hNCCs): EPO secreted into the medium. To be noted: hNCCs on Day 18, 100 μM, 1 day after addition. As to the method: EPO-producing cells are known to perform the production and secretion of EPO in response to HIF signals in a hypoxic environment. The hypoxic response of the hNCCs on Day 18 prepared in Example 1-3 was confirmed using two types of compounds that activated HIF signals (FG-2216: Selleck Chemicals #18382 and FG-4592: Selleck Chemicals #S1007, 100 μM each). Results of quantifying the amount of EPO secreted into the medium on 1 day after addition of FG-2216 or FG-4592 are shown in FIG. 3. The secretion of EPO into the medium was increased in response to hypoxic stimulation.

Experiment [1] relates to RSCs. The experiment is described as follows: Evaluation of TGFβ1 response of RSCs (fibrosis, area of tdTomato-positive cells, αSMA). As to the method: In vivo renal stromal cells are known to cause differentiation into αSMA-positive myofibroblasts and hypertrophy (so-called fibrosis) in response to TGFβ1 stimulation. RSCs were obtained by the methods described in Examples 1, 2 and 3-1 from the EPO-emGFP/GAPDH-tdTomato (GAPDH-tdT) dual knock-in human iPS cell line obtained in Example 4-2 mentioned later. In the method described in Example 1, the RA concentration was set to 3 μM. RSCs on day 4 of culture (D4) were treated with TGFβ1 (0.01 to 10 ng/ml) for 9 days (D13), and the degree of fibrosis was evaluated by determining the ratio of tdTomato-positive cells using image analysis software Image J (NIH). Specifically, a fluorescently taken image was converted to 8 bits for binarization, and the whole area was divided into “area of cells” and “other areas (areas containing no cell)”. The proportion was calculated according to the expression “Area of cells”/“Whole area”.

Experiment [2] relates to RSCs. The experiment is described as follows: Screening system for a compound that improves a sustained fibrotic state (area of tdTomato-positive cells). To be noted: 3, 10 or 30 μM added on D15, cultured to D24, after 10 ng/ml TGFβ1 D4 to D13. The protocol:
In FIG. 15, RSCs on day 4 of culture (D4) were treated with TGFβ1 (10 ng/ml) for 9 days (D13) and then further cultured in a TGFβ1-free medium (D15) for 2 days. SB431542 (3, 10 or 30 μM) was added to the medium of the cells on D15, and the cells were further cultured for 9 days (D24). […] “Cont” depicts a negative control (without SB addition).
RSPs were inoculated at 3000 cells/well to a 384-well plate, and the induction of RSCs was started in STEMdiff APEL2 medium (STEMCELL Technologies Inc., ST-05275). On day 4 of culture (D4), fibrosis was induced by the addition of 10 ng/ml TGFβ1. During the culture period, the culture solution containing TGFβ1 was replaced with a fresh one every 3 days. On day 13 of culture (D13), TGFβ1 was removed from the medium, and culture was further continued for 2 days (D15). The TGF receptor inhibitor SB431542 (SB) was added as a test substance to the medium of the cells on D15, and the cells were further cultured for 9 days (D24). Then, the area of tdTomato-positive cells was determined.

A further experiment has as its system RSPs. The experiment is described as follows: Influence of bFGF, FGF9 and PDGF-BB on differentiation of RSPs into RSCs (number of cells, EPO ELISA). As to the method:
The RSPs obtained in Example 2 were inoculated at 2×10^3 cells/well to a 6-well plate coated with fibronectin, and cultured for 15 days in STEMdiff APEL2 medium (STEMCELL Technologies Inc., ST-05275) to obtain RSCs (Days 55 to 70).
The number of cells and the amount of EPO secreted into the medium which were obtained by adding 40 ng/ml bFGF, 200 ng/ml FGF9 (FUJIFILM Wako Pure Chemical Corp., #AF-100-23), and 10 ng/ml PDGF-BB (PeproTech, Inc., #100-14B) each alone or in combination to a medium were measured under the induction conditions of Example 3-1. EPO in the medium was measured by ELISA.
Background: In an ELISA, binding on a coated surface is turned into a signal by an enzyme label.

Experiment [3] concerns RSCs. Kind of experiment: Hypoxia-responsive ability of RSCs to produce EPO (mRNA, immunostaining). To be noted: 100 μM. As to the method: The RSPs obtained in Example 2 were inoculated at 2×10^3 cells/well to a 6-well plate coated with fibronectin, and cultured for 15 days in STEMdiff APEL2 medium (STEMCELL Technologies Inc., ST-05275) to obtain RSCs (Days 55 to 70). The hypoxia-responsive ability to produce EPO was confirmed as to the obtained RSCs. EPO-producing cells are known to perform the production and secretion of EPO in response to HIF signals in a hypoxic environment. The RSCs were treated with a compound that activated HIF signals (FG-4592, Selleck Chemicals, #S1007, 100 μM).

The subject of experiment [4] is kidney organoid (Mini-kidney). Kind of experiment: EPO mRNA expression in kidney organoid (Mini-kidney) under hypoxic stimulation. To be noted: Mini-kidney IM+RSP (D25), 100 μM. As to the method: RNA was extracted from the kidney organoid on Day 25 from the start of coculture (Mini-kidney, IM+RSP (D25)) obtained in Example 4-3 and a kidney organoid containing no RSP (KiO (D25)), and libraries for transcriptome analysis were prepared using Ion AmpliSeq™ Transcriptome Human Gene Expression Kit (Thermo Fisher Scientific, Inc.: #A26326). The prepared libraries were subjected to sequencing analysis (Ion S5 XL sequencer, Thermo Fisher Scientific, Inc.) using Ion 54™ Chip Kit (Thermo Fisher Scientific, Inc., #A27765) to quantify the expression level of EPO mRNA. The significant expression of EPO mRNA was not seen in any of an iPS cell line, IM, and the kidney organoid containing no RSP (KiO (D25)). By contrast, the significant expression of EPO mRNA was confirmed in the Mini-kidney (IM+RSP (D25)). As a result of confirming the hypoxic response of the Mini-kidney in the same manner as in Example 1-4, the EPO expression level was increased by hypoxic stimulation (100 μM FG-4592) (IM+RSP (D25) +FG4592).

For experiment [5], the system named is kidney organoid (Mini-kidney). The experiment is described as follows: Renal stromal cell marker mRNA expression in Mini-kidney under hypoxic stimulation. To be noted: Mini-kidney IM+RSP (D25), 100 μM. From the text: The mRNA expression levels of renal stromal cell markers (desmin, vimentin, PDGFRβ and CD73) were quantified by the sequencing analysis of the libraries for transcriptomes prepared in Example 4-4. The expression of all the renal stromal cell markers was confirmed in the Mini-kidney (IM+RSP (D25)). As a result of confirming the hypoxic response of the Mini-kidney (IM+RSP (D25)) in the same manner as in Example 1-4, the expression levels of desmin and CD73 were decreased by hypoxic stimulation (100 μM FG-4592) (IM+RSP (D25)+FG4592).

Experiment [6] relates to RSCs. The experiment is described as follows: Fibrotic state of RSCs after removal of TGFβ1 from the medium. The protocol:
In FIG. 13, RSCs on day 4 of culture (D4) were treated with TGFβ1 (1 ng/ml) for 9 days (D13 TGF) and then further cultured in a TGFβ1-containing medium (D25 TGF+) or a TGFβ1-free medium (D25 TGF−) for 12 days. […] “D25 Cont” depicts a negative control (without TGFβ1 treatment).
In FIG. 14, RSCs on day 4 of culture (D4) were treated with TGFβ1 (10 ng/ml) for 9 days (D13 TGF) and then further cultured in a TGFβ1-containing medium (D25 TGF+) or a TGFβ1-free medium (D25 TGF−) for 12 days. […] “D25 Cont” depicts a negative control (without TGFβ1 treatment).
By exploiting this property of fibrosis of RSCs, a screening system for a compound that improved a sustained fibrotic state was constructed.

In a further experiment the test system is fibronectin (FN1). The experiment is described as follows: Biomarker search: LC/MS analysis of culture supernatant of RSCs with induced fibrosis. To be noted: 10 ng/ml TGFβ1 for 9 days. As to the method:
RSPs were inoculated at 2×10^6 cells/dish to a 10 cm dish, and the induction of RSCs was started in STEMdiff APEL2 medium (STEMCELL Technologies Inc., ST-05275). On day 7 of culture (D7), 10 ng/ml TGFβ1 was added thereto, and the cells were further cultured for 9 days to induce fibrosis.
The culture supernatant was recovered. After removal of albumin, IgG and IgA, a peptide fragment was obtained by acetone precipitation and trypsin digestion. The amino acid sequence of the peptide fragment was determined by LC/MS analysis.

With `O=C(O)CNC(=O)c1nc(Cl)c2ccccc2c1O` [FG-2216], the “secretion of EPO into the medium” value in the experiment on hNCCs is listed as “increased”.

As to `NC(=O)c1ccc(-c2nc(-c3ccc4c(c3)OCO4)c(-c3ccccn3)[nH]2)cc1` [SB431542, 4-[4-(1,3-benzodioxol-5-yl)-5-(2-pyridinyl)-1H-imidazol-2-yl]-benzamide], the “cellular hypertrophy caused by TGFβ1” value with RSCs [1] (cotreatment with TGF receptor inhibitor) was “suppressed”. In addition, the “fibrosis (area of tdTomato-positive cells)” value with RSCs [2] is listed as “marked suppression of fibrosis”.

Regarding “bFGF: basic fibroblast growth factor (FUJIFILM Wako Pure Chemical Corp.)”, the “proliferation of the cells” value in the experiment on RSPs (40 ng/ml bFGF added to STEMdiff APEL2 medium) is “promoted”.

Turning to `Cc1nc(C(=O)NCC(=O)O)c(O)c2ccc(Oc3ccccc3)cc12` [FG-4592], the “secretion of EPO into the medium” value with hNCCs is on record as “increased”. The “expression of EPO in response to hypoxic stimulation” value in the experiment with RSCs [3] was “found at the mRNA level and the protein level”. The EPO expression level result in experiment [4] is recorded as “increased”. Also, in experiment [5], the “expression level of CD73” value is reported as “decreased” and the “expression level of desmin” value was “decreased”.

Consider “TGFβ1: isoform of transforming growth factor β, fibrosis-inducing substance”, for which the “cellular hypertrophy, concentration dependence” value with RSCs [1] (TGFβ1 0.01 to 10 ng/ml for 9 days) is on record as “caused in a TGFβ1 concentration-dependent manner”. Moreover, the “differentiation into αSMA-positive myofibroblasts and cellular hypertrophy” value in the experiment on RSCs [1] (TGFβ1 0.01 to 10 ng/ml for 9 days (D4 to D13)) is “found”. Further, in the experiment with RSCs [6] (fibrosis induced by 1 ng/ml TGFβ1), the “fibrotic state after removing TGFβ1 from the medium” value was “restored to non-fibrotic RSCs”. In addition, the “fibrotic state after removal of TGFβ1 from the medium” value in the experiment on RSCs [6] (fibrosis induced by 10 ng/ml TGFβ1) is “maintained the fibrotic state”. Besides, in the experiment on fibronectin (FN1), the “FN1 detected in culture supernatant of treated cells as compared with untreated cells” value is reported as “about 10 times”.

B1: PDGF-BB: platelet derived growth factor B chain homodimer (PeproTech, Inc., #100-14B) (protein, UniProt P01127 82-190, looked up)
Platelet-derived growth …: SLGSLTIAEPAMIAECKTRTEVFEISRRLIDRTNANFLVWPPCVEVQRCSGCCNNRNVQCRPTQVQLRPVQVRKIEIVRKKPIFKKATVTLEDHLACKCETVAAARPVT
With B1, in the experiment on RSPs (10 ng/ml PDGF-BB added to STEMdiff APEL2 medium), the “amount of EPO secreted” value is “increased”.
